Data published in US9611457B2, “Triazine derivatives as differentiation catalysts” (TECHNISCHE UNIVERSITAET WIEN, priority 2011, dated 2017).

Experiments:
[1] = test system: Atrial natriuretic factor (ANF) expression, P19 cells; test: ANF test (ANF promoter luciferase reporter) in P19 cells; format: cell-based, murine; set-up: key to Evaluation (luminescence in relation to the blank): −: decrease of luminescence compared to the blank value; +: measurable increase; ++: at least 1.5-fold increase; +++: at least 2-fold increase; settings: for ANF expression level / efficiency, stated in words: ANF test, P19 cells (DTAB and summary statements also cover C2C12)
From the text: Atrial natriuretic factor (ANF) or atrial natriuretic peptide (ANP) is a cyclic peptide hormone made up of 28 amino acids, which is predominantly emitted by the muscle cells (myocytes) of the atrium of the heart. It is stored in the atrium as a pro-hormone made of 126 amino acids and is cleaved by serine protease corine into an N-terminal part and the biologically active ANF, which is often used as a cardiac-specific marker protein. In cell differentiation measurements, i.e. in determining the extent to which certain cells have become “cardiac cell-like” by differentiation, often a reporter gene located downstream of the ANF gene is used, as it expression product is easier to detect than the concentration of ANF in a cellular culture, for example, a luciferase gene. Luciferase in an enzyme which catalyzes the oxidation of a luminescent substrate (luciferine). While that happens, light is emitted, and the intensity of that light is correlated with the expression level of ANF and can therefore serve as a measure of ANF expression.
Initial attempts of ANF expression screenings were performed with P19 cells, i.e. murine embryonal carcinoma cells obtained from the ATCC, or C2C12 cells, i.e. a murine myoblast cell line, as models. In preparation, a plasmid was first constructed by amplifying a gene fragment containing a rat ANF promoter region and subcloning it into the PCL3-BV luciferase reporter plasmid of Promega. The P19 cells were temporarily transfected with said plasmid and cultured in Modified Eagle's Medium alpha (MEM-α) with 7.5% neonatal calf serum and 2.5% fetal bovine serum at 37° C. under 5% CO2 in monolayers for 8 days, during which the medium was exchanged three times. The respective compounds were added at about 60% confluence in DMSO as solvents at a concentration of 1 μM or DMSO alone (as a blank). The luminescence of the samples was measured with a Perkin Elmer Victor V 1420 Multilabel Counter. Their increase or decrease in the presence of the compounds of formula (I) is given in Table 1 below in relation to the blank.
The evaluations have the following meanings: • − decrease of luminescence compared to the blank value; • + measurable increase; • ++ at least 1.5-fold increase; • +++ at least 2-fold increase; • * represents C2C12 cells; and • ** represents P19 cells.

[2] = P19 cells (**), compound 1 μM in DMSO, 8 days culture, relative to DMSO blank

melting point	Compound	Evaluation (luminescence in relation to the blank) [1, 2]	also measured
160 to 164 °C	COc1ccc(Nc2ncnc(NCCO)n2)cc1 [(4), 2-[4-(4-methoxyphenylamino)-1,3,5-triazin-2-ylamino]ethanol]	−**	ANF expression level / efficiency, stated in words [1]: the poorest measurement results among all compounds
198 to 199.5 °C	COC(=O)c1cccc(Nc2nc(Oc3ccccc3)nc(Oc3ccccc3)n2)c1 [(6), 3-[(4.6-diphenoxy-1,3,5-triazin-2-yl)amino]benzoic acid methyl ester]		
186.5 to 188 °C	COC(=O)c1cccc(Nc2nc(Oc3ccccc3)nc(Oc3ccc(Cl)cc3)n2)c1 [(7), 3-{[4-(4-chlorophenoxy)-6-phenoxy-1,3,5-triazin-2-yl]amino}benzoic acid methyl ester]	−**	
151.5 to 156 °C	COC(=O)c1cccc(Nc2nc(Oc3ccccc3)nc(Oc3cccc(Cl)c3)n2)c1 [(8), 3-{[4-(3-chlorophenoxy)-6-phenoxy-1,3,5-triazin-2-yl]amino}benzoic acid methyl ester]		fold induction at 1 µM ([1]; Mus musculus, 192 h, P19 cells (**), compound 1 μM in DMSO, 8 days culture, relative to DMSO blank, read-out: Evaluation (luminescence in relation to the blank)): ≥ 1.5
139 to 141.5 °C	COC(=O)c1cccc(Nc2nc(Oc3ccccc3)nc(Oc3ccccc3Cl)n2)c1 [(9), 3-{[4-(2-chlorophenoxy)-6-phenoxy-1,3,5-triazin-2-yl]amino}benzoic acid methyl ester]	−**	
85 to 86 °C	COC(=O)c1cccc(Nc2nc(Oc3ccccc3)nc(Oc3ccc(C(C)(C)C)cc3)n2)c1 [(10), 3-{[4-(4-t-butylphenoxy)-6-phenoxy-1,3,5-triazin-2-yl]amino}benzoic acid methyl ester]	−**	
	COC(=O)c1cccc(Nc2nc(Oc3ccccc3)nc(Oc3cccc([N+](=O)[O-])c3)n2)c1 [(13), 3-{[4-(3-nitrophenoxy)-6-phenoxy-1,3,5-triazin-2-yl]amino}benzoic acid methyl ester]	−**	
79 to 82 °C	COC(=O)c1cccc(Nc2nc(Oc3ccc(OC)cc3)nc(Oc3ccc(C=O)cc3OC)n2)c1 [(15), 3-{[4-(4-formyl-2-methoxyphenoxy)-6-(4-methoxyphenoxy)-1,3,5-triazin-2-yl]amino}benzoic acid methyl ester]		
180 °C	COC(=O)c1cccc(Nc2nc(Oc3ccc(OC)cc3)nc(Oc3ccc(Br)cc3C=O)n2)c1 [(16), 3-{[4-(4-bromo-2-formylphenoxy)-6-(4-methoxyphenoxy)-1,3,5-triazin-2-yl]amino}benzoic acid methyl ester]		
132 to 134.5 °C	COC(=O)c1cccc(Nc2nc(Oc3ccc(C#N)cc3)nc(Oc3ccc(OC)cc3)n2)c1 [(17), 3-{[4-(4-cyanophenoxy)-6-(4-methoxyphenoxy)-1,3,5-triazin-2-yl]-amino}benzoic acid methyl ester]		
208 to 209 °C	CC(C)(C)OC(=O)c1cccc(Nc2nc(Oc3ccccc3)nc(Oc3ccccc3)n2)c1 [(18), 3-[(4.6-diphenoxy-1,3,5-triazin-2-yl)amino]benzoic acid t-butyl ester]		
172.5 to 174 °C	CC(C)(C)OC(=O)c1cccc(Nc2nc(Oc3ccccc3)nc(Oc3ccc(Cl)cc3)n2)c1 [(19), 3-{[4-(4-chlorophenoxy)-6-phenoxy-1,3,5-triazin-2-yl]amino}benzoic acid t-butyl ester]		
187.5 to 190.5 °C	CC(C)(C)OC(=O)c1cccc(Nc2nc(Oc3ccccc3)nc(Oc3cccc(Cl)c3)n2)c1 [(20), 3-{[4-(3-chlorophenoxy)-6-phenoxy-1,3,5-triazin-2-yl]amino}benzoic acid t-butyl ester]		
191 to 192 °C	CC(C)(C)OC(=O)c1cccc(Nc2nc(Oc3ccccc3)nc(Oc3ccccc3Cl)n2)c1 [(21), 3-{[4-(2-chlorophenoxy)-6-phenoxy-1,3,5-triazin-2-yl]amino}benzoic acid t-butyl ester]		
139 to 141 °C	CC(C)(C)OC(=O)c1cccc(Nc2nc(Oc3ccccc3)nc(Oc3ccc(C(C)(C)C)cc3)n2)c1 [(22), 3-{[4-(4-t-butylphenoxy)-6-phenoxy-1,3,5-triazin-2-yl]amino}benzoic acid t-butyl ester]		
68 to 70 °C	COc1ccc(Oc2nc(Nc3cccc(C(=O)OC(C)(C)C)c3)nc(Oc3ccccc3)n2)cc1 [(23), 3-{[4-(4-methoxyphenoxy)-6-phenoxy-1,3,5-triazin-2-yl]amino}benzoic acid t-butyl ester]		
176.5 to 178.5 °C	CC(C)(C)OC(=O)c1cccc(Nc2nc(Oc3ccccc3)nc(Oc3ccc(C#N)cc3)n2)c1 [(24), 3-{[4-(4-cyanophenoxy)-6-phenoxy-1,3,5-triazin-2-yl]amino}benzoic acid t-butyl ester]		
137 to 148 °C	CC(C)(C)OC(=O)c1cccc(Nc2nc(Oc3ccccc3)nc(Oc3cccc([N+](=O)[O-])c3)n2)c1 [(25), 3-{[4-(3-nitrophenoxy)-6-phenoxy-1,3,5-triazin-2-yl]amino}benzoic acid t-butyl ester]		
76 to 79 °C	COc1cc(C=O)ccc1Oc1nc(Nc2cccc(C(=O)OC(C)(C)C)c2)nc(Oc2ccccc2)n1 [(26), 3-{[4-(4-formyl-2-methoxyphenoxy)-6-phenoxy-1,3,5-triazin-2-yl]-amino}benzoic acid t-butyl ester]		
88 to 106 °C	COc1ccc(Oc2nc(Nc3cccc(C(=O)OC(C)(C)C)c3)nc(Oc3ccc(C=O)cc3OC)n2)cc1 [(27), 3-{[4-(4-formyl-2-methoxyphenoxy)-6-(4-methoxyphenoxy)-1,3,5-triazin-2-yl]amino}benzoic acid t-butyl ester]		
161 to 164 °C	COc1ccc(Oc2nc(Nc3cccc(C(=O)OC(C)(C)C)c3)nc(Oc3ccc(C#N)cc3)n2)cc1 [(28), 3-{[4-(4-cyanophenoxy)-6-(4-methoxyphenoxy)-1,3,5-triazin-2-yl]-amino}benzoic acid t-butyl ester]		
180 to 182 °C	COc1ccc(Oc2nc(Nc3cccc(C(=O)O)c3)nc(Oc3ccc(C=O)cc3OC)n2)cc1 [(37), 3-{[4-(4-formyl-2-methoxyphenoxy)-6-(4-methoxyphenoxy)-1,3,5-triazin-2-yl]amino}benzoic acid]		
	OCc1cccc(Nc2nc(Oc3ccccc3)nc(Oc3cccc(Cl)c3)n2)c1 [(42), {3-[(4-(3-chlorophenoxy)-6-phenoxy-1,3,5-triazin-2-yl)amino]phenyl}-methanol]	+** and (42) (m-chloro): +	
	COc1ccc(Oc2nc(Nc3cccc(CO)c3)nc(Oc3ccccc3)n2)cc1 [(45), {3-[(4-(4-methoxyphenoxy)-6-phenoxy-1,3,5-triazin-2-yl)amino]-phenyl}methanol]	+**	

Compound	melting point	Evaluation (luminescence in relation to the blank) [1, 2]	also measured
CCNc1nc(Cl)nc(Nc2ccc(OC)cc2)n1 [(3), 6-chloro-N2-ethyl-N4-(4-methoxyphenyl)-1,3,5-triazin-2.4-diamine]	174 to 176 °C	−**	ANF expression level / efficiency, stated in words [1]: the poorest measurement results among all compounds
CCOC(=O)c1ccc(Nc2nc(Oc3ccccc3)nc(Oc3ccccc3)n2)cc1 [(5), 4-[(4.6-diphenoxy-1,3,5-triazin-2-yl)amino]benzoic acid ethyl ester]	159 to 161 °C	−**	
